Test results: patent EP2357172B1, “Process for the preparation of pimozide” (Institut Univ. de Ciència i Tecnologia, S.A., priority 2006, dated 2008)

Tests used:
[1] = test system: rats; details: cited from earlier work
[2] = test system: rats; assay: Oral lethal dose (LD50) in rats, from safety data sheets; assay type: in vivo; details: glycerol formal compared with MIBK
Text: The data for MIBK were obtained from the International Chemical Safety Card published by "Instituto Nacional de Seguridad e Higiene en el Trabajo" (National Institute for Occupational Safety and Hygiene). The data for glycerol formal were obtained from the most recent manufacturer's standard safety data sheet.

[3] = cited from earlier work

Molecule | LD50(oral-rats, g/kg) [1] [g/kg] | lethal dose in rats (ingestion) relative to MIBK [2] | Solubility in H2O (g/L) [3]
CC(=O)CC(C)C [MIBK, methylisobutylketone] | 2.1 | – | –
GLYCEROL FORMAL | 10 | five times higher | Miscible in all proportions
